How the values were obtained:
Assay type in all cases: in vivo
Aphiscraccivora = assay: Insecticidal activity, dipping method
Description: (§1) The insecticidal activity of sulfonyl functional compounds in the above embodiments were tested for agricultural biological functions, and the targets of insecticidal activity were Heliothis armigera, Plutella xylostella and Aphiscraccivora.
(§2) The insecticidal activity of sulfonyl functional compounds against Aphiscraccivora was tested by the method of dipping. Mother liquors were prepared by the sulfonyl functional compounds provided in the above embodiments dissolved in ethanol, respectively. 500 mg/L, 250 mg/L or 125 mg/L test solution could be prepared by diluting the different mother liquors with a liquor that contained 0.1 mL/L of emulgator (Tween-80). Every test solution was tested twice (Rep1 and Rep2). A blank control was set up, and the activity results were compared with the blank control. The mortality rate of 0˜30%, 30˜50%, 50-70%, 70˜90%, or 90˜100% could be orderly set as 0, 3, 5, 7, or 9.

Heliothis armigera = assay: Insecticidal activity, artificial feed surface coating method; details: for mortality at 125 µg/mL / mortality at 250 µg/mL / mortality at 500 µg/mL: Helicoverpa armigera, read-out: Insecticidal activity (mortality rate grade) Heliothis armigera
Description: as §1
(§3) Using Heliothis armigera and Plutella xylostella as target, the insecticidal activities of sulfonyl functional compounds were tested by conventional artificial feed surface coating method. 300 microliters of artificial feed and 20 microliters of test solution were added to each well of the 24-well cell culture plate. The test solution was used in different concentrations and repeated twice (Rep1 and Rep2). The concentrations of the test solution were 500 mg/L, 250 mg/L and 125 mg/L, respectively.
as §2

Plutella xylostella = assay: as above; details: for mortality at 125 µg/mL / mortality at 250 µg/mL / mortality at 500 µg/mL: Plutella xylostella, read-out: Insecticidal activity (mortality rate grade) Plutella xylostella
Description: as §1, §3, §2

| Structure (SMILES) | Insecticidal activity (mortality rate grade) Aphiscraccivora (Aphiscraccivora; 125 mg/L test solution) | Insecticidal activity (mortality rate grade) Aphiscraccivora (Aphiscraccivora; 250 mg/L test solution) | Insecticidal activity (mortality rate grade) Aphiscraccivora (Aphiscraccivora; 500 mg/L test solution) | mortality at 125 µg/mL (Heliothis armigera; 125 mg/L test solution) [%] | mortality at 250 µg/mL (Heliothis armigera; 250 mg/L test solution) [%] | mortality at 500 µg/mL (Heliothis armigera; 500 mg/L test solution) [%] | mortality at 125 µg/mL (Plutella xylostella; 125 mg/L test solution) [%] | mortality at 250 µg/mL (Plutella xylostella; 250 mg/L test solution) [%] | mortality at 500 µg/mL (Plutella xylostella; 500 mg/L test solution) [%] | Insecticidal activity (mortality rate grade) Heliothis armigera (Heliothis armigera; 125 mg/L test solution) | Insecticidal activity (mortality rate grade) Heliothis armigera (Heliothis armigera; 250 mg/L test solution) | Insecticidal activity (mortality rate grade) Heliothis armigera (Heliothis armigera; 500 mg/L test solution) | Insecticidal activity (mortality rate grade) Plutella xylostella (Plutella xylostella; 125 mg/L test solution) | Insecticidal activity (mortality rate grade) Plutella xylostella (Plutella xylostella; 250 mg/L test solution) | Insecticidal activity (mortality rate grade) Plutella xylostella (Plutella xylostella; 500 mg/L test solution) |
| --- | --- | --- | --- | --- | --- | --- | --- | --- | --- | --- | --- | --- | --- | --- | --- |
| N#CCNC(=O)c1c[n+](CCCS(=O)(=O)O)ccc1C(F)(F)F [Compound I-1] | 5 (50-70%) | 7 (70˜90%) | 9 (90˜100%) | 0 to 30 | 0 to 30 | 30 to 50 | 0 to 30 | 0 to 30 | 50 to 70 | – | – | – | – | – | – |
| N#CCNC(=O)c1c[n+](C/C=C/S(=O)(=O)O)ccc1C(F)(F)F [Compound I-2] | 7 (70˜90%) | 9 (90˜100%) | 9 (90˜100%) | 0 to 30 | 30 to 50 | 50 to 70 | 0 to 30 | 30 to 50 | 50 to 70 | – | – | – | – | – | – |
| N#CCNC(=O)c1c[n+](CCCCS(=O)(=O)O)ccc1C(F)(F)F [Compound I-3] | 7 (70˜90%) | 7 (70˜90%) | 9 (90˜100%) | 0 to 30 | 30 to 50 | 30 to 50 | 30 to 50 | 50 to 70 | 50 to 70 | – | – | – | – | – | – |
| O=C(NCCc1ccc(OC(F)(F)F)cc1)c1c[n+](CCCS(=O)(=O)O)ccc1C(F)(F)F [Compound I-4] | 3 (30˜50%) | 5 (50-70%) | 7 (70˜90%) | 0 to 30 | 30 to 50 | 30 to 50 | 0 to 30 | 30 to 50 | 50 to 70 | – | – | – | – | – | – |
| O=C(NCCc1ccc(OC(F)(F)F)cc1)c1c[n+](C/C=C/S(=O)(=O)O)ccc1C(F)(F)F [Compound I-5] | 3 (30˜50%) | 3 (30˜50%) | 7 (70˜90%) | 0 to 30 | 0 to 30 | 30 to 50 | 30 to 50 | 50 to 70 | 50 to 70 | – | – | – | – | – | – |
| O=C(NCCc1ccc(OC(F)(F)F)cc1)c1c[n+](CCCCS(=O)(=O)O)ccc1C(F)(F)F [Compound I-6] | 5 (50-70%) | 7 (70˜90%) | 7 (70˜90%) | 0 to 30 | 0 to 30 | 30 to 50 | 0 to 30 | 30 to 50 | 50 to 70 | – | – | – | – | – | – |
| CC1=NNC(=O)N(N=Cc2ccc[n+](CCCS(=O)(=O)[O-])c2)C1 [IV-1] | 9 (90˜100%) | 9 (90˜100%) | 9 (90˜100%) | – | – | – | – | – | – | 0 (mortality rate of 0˜30%) | 3 (30˜50%) | 3 (30˜50%) | 3 (30˜50%) | 3 (30˜50%) | 5 (50-70%) |
| CC1=NNC(=O)N(N=Cc2ccc[n+](CC=CS(=O)(=O)[O-])c2)C1 [IV-2] | 7 (70˜90%) | 9 (90˜100%) | 9 (90˜100%) | – | – | – | – | – | – | 0 (mortality rate of 0˜30%) | 0 (mortality rate of 0˜30%) | 0 (mortality rate of 0˜30%) | 0 (mortality rate of 0˜30%) | 3 (30˜50%) | 5 (50-70%) |
| CC1=NNC(=O)N(N=Cc2ccc[n+](CCCCS(=O)(=O)[O-])c2)C1 [IV-3] | 9 (90˜100%) | 9 (90˜100%) | 9 (90˜100%) | – | – | – | – | – | – | 0 (mortality rate of 0˜30%) | 0 (mortality rate of 0˜30%) | 3 (30˜50%) | 0 (mortality rate of 0˜30%) | 3 (30˜50%) | 3 (30˜50%) |
| CC(=O)N1N=C(C)CN(N=Cc2ccc[n+](CCCS(=O)(=O)[O-])c2)C1=O [IV-4] | 9 (90˜100%) | 9 (90˜100%) | 9 (90˜100%) | – | – | – | – | – | – | 0 (mortality rate of 0˜30%) | 3 (30˜50%) | 5 (50-70%) | 3 (30˜50%) | 5 (50-70%) | 5 (50-70%) |
| CCC(=O)N1N=C(C)CN(N=Cc2ccc[n+](CCCS(=O)(=O)[O-])c2)C1=O [IV-5] | 7 (70˜90%) | 7 (70˜90%) | 9 (90˜100%) | – | – | – | – | – | – | 0 (mortality rate of 0˜30%) | 0 (mortality rate of 0˜30%) | 0 (mortality rate of 0˜30%) | 0 (mortality rate of 0˜30%) | 0 (mortality rate of 0˜30%) | 3 (30˜50%) |
| CC(=O)N1N=C(C)CN(N=Cc2ccc[n+](CC=CS(=O)(=O)[O-])c2)C1=O [IV-6] | 5 (50-70%) | 9 (90˜100%) | 9 (90˜100%) | – | – | – | – | – | – | 0 (mortality rate of 0˜30%) | 3 (30˜50%) | 3 (30˜50%) | 0 (mortality rate of 0˜30%) | 3 (30˜50%) | 5 (50-70%) |
| CCC(=O)N1N=C(C)CN(N=Cc2ccc[n+](CC=CS(=O)(=O)[O-])c2)C1=O [IV-7] | 5 (50-70%) | 7 (70˜90%) | 9 (90˜100%) | – | – | – | – | – | – | 0 (mortality rate of 0˜30%) | 0 (mortality rate of 0˜30%) | 0 (mortality rate of 0˜30%) | 0 (mortality rate of 0˜30%) | 0 (mortality rate of 0˜30%) | 3 (30˜50%) |
| CC(=O)N1N=C(C)CN(N=Cc2ccc[n+](CCCCS(=O)(=O)[O-])c2)C1=O [IV-8] | 9 (90˜100%) | 9 (90˜100%) | 9 (90˜100%) | – | – | – | – | – | – | 0 (mortality rate of 0˜30%) | 0 (mortality rate of 0˜30%) | 0 (mortality rate of 0˜30%) | 0 (mortality rate of 0˜30%) | 3 (30˜50%) | 3 (30˜50%) |
| CCC(=O)N1N=C(C)CN(N=Cc2ccc[n+](CCCCS(=O)(=O)[O-])c2)C1=O [IV-9] | 7 (70˜90%) | 7 (70˜90%) | 9 (90˜100%) | – | – | – | – | – | – | 0 (mortality rate of 0˜30%) | 0 (mortality rate of 0˜30%) | 0 (mortality rate of 0˜30%) | 0 (mortality rate of 0˜30%) | 0 (mortality rate of 0˜30%) | 3 (30˜50%) |

Source: patent US20250084061A1, “SULFONYL FUNCTIONAL COMPOUND, METHODS AND USES THEREOF” (Hubei Biopesticide Engineering Research Centre, priority 2023, published 2025)
